Marks after values point to notes of the source that are not given here.
Key:
CGR8-2Luc ESCs = test system: CGR8-2Luc ESCs
Source text: (§1) Fig. 1 Synopsis of experimental protocols. The impact of compounds on neural promoter activity (FLuc, Firefly Luciferase under the control of the Tα1 promoter), general promoter activity (RLuc, Renilla Luciferase under the control of the EF1α promoter), and amount of DNA (PI, propidium iodide fluorescence in cell homogenates) was investigated in undifferentiated mouse embryonic pluripotent stem cells (ESCs) and on ESC-derived neurons. Arrows indicate the time of measurement of the three parameters. a Protocol for testing compounds effects on ESCs. CGR8-2Luc cells were plated on gelatin-coated 96-well plates in maintenance medium (BHK21 medium containing 10 % FCS, L-glutamine, NEAA, P/S, and LIF). Twenty-four hours later, cells were exposed to compounds for forty-eight hours. b Protocol for testing compounds on ESC-derived neurons. CGR8-2Luc cells were co-cultured with MS5 cells to induce neural differentiation in DMEM medium containing 15 % KO-serum, NEAA, β-mercaptoethanol, and P/S. On day 5, cells were detached and seeded on polyornithine-coated plates in DMEM medium containing N2 supplement, bFGF, and P/S; compound exposure was from day 6 to day 8
(§2) To test compounds on ESC-derived neurons, neuronal differentiation was carried out as previously described (Suter et al. [2009]; Xu et al. [2014]). Briefly, CGR8-2Luc cells were seeded on irradiated bone marrow-derived stromal MS5 cells and cultivated for 4 days in DMEM medium containing 15 % Knock-out™ Serum Replacement, non-essential amino acids, beta-mercaptoethanol, and penicillin/streptomycin. At day 5, cells were then re-plated (3 × 10^5 cells/cm^2) on polyornithine-coated 96-well plates in N2 medium containing DMEM, N2 supplement, penicillin/streptomycin, and 10 ng/ml basic human fibroblast growth factor (bFGF) (Invitrogen). […] To assess toxicity of compounds on undifferentiated pluripotent stem cells (ESCs), CGR8-2Luc cells were plated at 45,000 cells/cm^2 on 0.1 % gelatin-coated dishes in BHK21 medium, supplemented with 10 % fetal calf serum, L-glutamine, non-essential amino acids, penicillin/streptomycin, and leukemia inhibitory factor (LIF). After 24 h, compounds were added and incubated for 48 h, before luciferase expression and PI fluorescence were analyzed. In all experiments, methylmercury was used as a positive control at a concentration of 5 µM.
(§3) After measurement of luciferase activity, DNA quantity was determined by PI assay, as previously described (Xu et al. [2014]). PI was added to cell homogenates after the luciferase test, at a final concentration of 50 µg/ml and incubated for 2 h. After incubation, fluorescence intensity was measured on a Flexstation 3 microplate reader (Excitation: 544 nm ± 15 nm; Emission: 620 nm ± 15 nm). Results are expressed as percentage of control. Propidium iodide (PI) measures total DNA content as an approximation of the cell number. A decrease in PI fluorescence was interpreted as a decrease in cell number and therefore throughout the text referred to as cytotoxicity.
(§4) Lowest adverse effect level (LOAEL) was defined as the lowest tested concentrations that lead to a statistically significant decrease for a given read-out (FLuc, RLuc, and PI) compared to baseline. “Baseline” was not in all cases defined by untreated cells, but may also refer to, e.g., a state of increased activity due to low, non-toxic compound concentrations.

ESC-derived neurons = test system: ESC-derived neurons
Source text: as §1, §2, §3, §4

[1] = test system: Tubulin α1 (Tα1) promoter; test: cells
Source text: (§5) Dual luciferase expressing CGR8-2Luc cells were obtained by transduction of mouse ESC CGR8 cells with the 2K7 EFS-Renilla Luciferase (RLuc)/Talpha1-Firefly Luciferase (FLuc) vector as previously described (Suter et al. [2006], [2009]); EFS corresponds to the short promoter of the eukaryotic translation elongation factor 1 alpha (EF1α), and Talpha1 to the Tubulin α1 (Tα1) promoter. Tα1 was selected as a promoter active in neurons, including early stages of neural differentiation. EF1α was originally selected to function as a constitutive promoter; however, it responds to cellular differentiation as well as to various chemicals, as previously shown (Kern et al. [2013]). Cells were cultured on 0.1 % gelatin-coated dishes in CGR8-2luc maintenance medium: BHK21 medium, supplemented with 10 % fetal calf serum, L-glutamine, non-essential amino acids, penicillin/streptomycin, and leukemia inhibitory factor (LIF). CGR8 cells were grown in a feeder-independent manner (embryonic pluripotent stem cells, ESCs) as described in protocol 1 (Fig. 1) before testing compounds of interest.
as §1, §2
(§6) Luciferase activities were measured with a Dual-Luciferase™ Reporter system kit. CGR8-2Luc ES cells were lysed in 96-well plates according to the manufacturer’s instructions. Luminescence measurements were performed on a Fluostar Optima reader. Luminescence counts were expressed as percentage of promoter activity normalized by comparison with the control wells treated by DMSO.

EF1α promoter = test system: EF1α promoter
Source text: as §5, §1, §2, §6

[2] = test system: Tubulin α1 (Tα1) promoter
Source text: as §5, §1, §2, §6

[3] = test system: ESCs and ESC-derived neurons; test: Dual luminescence reporter test system, all readouts in ESCs and ESC-derived neurons
Source text: as §1, with “neurons.” for “neurons. CGR8-2Luc cells were co-cultured with MS5 cells to induce neural differentiation in DMEM medium containing 15 % KO-serum, NEAA, β-mercaptoethanol, and P/S. On day 5, cells were detached and seeded on polyornithine-coated plates in DMEM medium containing N2 supplement, bFGF, and P/S; compound exposure was from day 6 to day 8”
as §2, with “At” for “To test compounds on ESC-derived neurons, neuronal differentiation was carried out as previously described (Suter et al. [2009]; Xu et al. [2014]). Briefly, CGR8-2Luc cells were seeded on irradiated bone marrow-derived stromal MS5 cells and cultivated for 4 days in DMEM medium containing 15 % Knock-out™ Serum Replacement, non-essential amino acids, beta-mercaptoethanol, and penicillin/streptomycin. At”
Luciferase activities were measured with a Dual-Luciferase™ Reporter system kit. CGR8-2Luc ES cells were lysed in 96-well plates according to the manufacturer’s instructions. Luminescence measurements were performed on a Fluostar Optima reader. Luminescence counts were expressed as percentage of promoter activity normalized by comparison with the control wells treated by DMSO. […] parameters were measured in homogenates of ESCs and in ESC-derived neurons: (1) FLuc, reflecting the activity of early neural promoter Tα1. FLuc increases during neuronal differentiation. Many neurotoxic compounds may affect FLuc expression, either through impact on neuronal differentiation, through changes of neuronal gene expression, or through killing of neurons.
as §3, with “PI” for “After measurement of luciferase activity, DNA quantity was determined by PI assay, as previously described (Xu et al. [2014]). PI”
To describe the shape of different concentration–response curves, arbitrary scores were assigned as follows: 0 for “no change,” 1 for “down-stroke,” 2 for “bimodal profile,” and 3 for “up-stroke” (Fig. S1). A curve was classified as “down-stroke” or “up-stroke” if the change in response values comparative to control was statistically significant (p value <0.05, one-way ANOVA with post hoc Dunnett) with an additional requirement of a 30 % decrease or increase of mean response value relative to controls, respectively. If the absolute change in mean response values was below 30 % the curve was classified as “no change.” A curve was classified as “bimodal” if first up-stroke and subsequently down-stroke was observed.

[4] = printed in column Concentration in humans; ref http://pubchem.ncbi.nlm.nih.gov/compound/16682730; cited from earlier work
[5] = Table S1, three classes; ref per compound in the footnotes of Table S1; cited from earlier work
rats = details: rats, gestational days 6–17; ref Australian Therapeutic Goods Administration [2014]; cited from earlier work

CC(=O)[O][Hg][c]1ccccc1 [Phenylmercuric acetate]
LOAEL ESC DNA (CGR8-2Luc ESCs): 0.5 µM | LOAEL Neurons DNA (ESC-derived neurons): 0.5 µM | LOAEL Neurons Tα1 [1]: 0.5 µM | LOAEL ESC EF1α (EF1α promoter): 0.5 µM | LOAEL Neurons EF1α (EF1α promoter): 0.5 µM | LOAEL ESC Tα1 [2]: 0.5 µM | Number of non-cytotoxic changes [3]: 0 | oral lethal dose [4]: 5–50 mg/kg (oral lethal dose)^i | class based on clinical evidence for neurotoxicity [5]: Possibly (developmental)

CC(=O)O[C@H]1CC[C@@]2(C)C(=CC[C@@H]3[C@@H]2CC[C@]2(C)C(c4cccnc4)=CC[C@@H]32)C1 [abiraterone acetate]
oral dose inducing developmental toxicity (rats): ≥ 10 mg/kg/day

Reference: paper PMC5225183, “Fingerprinting of neurotoxic compounds using a mouse embryonic stem cell dual luminescence reporter assay” (Archives of Toxicology, 2016)
